# Several values for one entry are separate records, joined by “and”; a condition that tells them apart may be missing. Equal entries are not always repeated. Where two headings read alike, the source gives them in different places. Marks after values point to notes of the source that are not given here.
# Tests used:
# [1] = assay type: in vivo, Mus musculus
# Description: In this study, 36 healthy male Mus musculus (12–14 weeks old, 25–30 g) were used as subjects and obtained from GRU-Experimental Animals Laboratory. Albino mice were maintained in stainless steel cages, at 22 ± 3 °C and 55 ± 5% relative humidity, 12 h light/12 h dark cycle. All experiments were performed in accordance with the guidelines of the Animal Experiments Local Ethics Committee of Giresun University and approved by the Animal Ethics Committee of Giresun University (protocol number: 2017/02). This study was carried out in compliance with the ARRIVE guidelines. Six groups were formed with six mice in each group.
# After the mice were stunned under halothane anesthesia, their body weights were measured before the administration period and at the end of the 28-day administration period. In addition, at the end of the 28th day, the liver and kidney organs of the sacrificed mice were isolated and their weights were measured.
# [2] = assay type: in vivo, Mus musculus; remark: listed apart in the source
# Description: In order to interpret the changes in body weight and organ weights, the weekly feed consumption of the mice was measured. Albino mice can consume approximately 3–4 g of feed in a day[15]. In line with this information, 30 g of feed per day were put into the cages, with 5 g for each mouse in each group. Feed consumption was calculated by measuring the amount of feed remaining in the container at the end of the 7th day of each week during the 28-day application period.
# [3] = Serum parameters (AST, ALT, BUN, creatinine); assay type: in vivo, Mus musculus
# Description: Whole blood samples from mice stunned under halothane anesthesia were collected in vacuum tubes and centrifuged at 1200g at + 4 °C for 10 min. In serum obtained from blood, aspartate aminotransferase (AST, Teco Diagnostics, CAT. NO: A559–150), alanine aminotransferase (ALT, Teco Diagnostics, CAT. NO: A524–150), blood urea nitrogen (BUN, Teco Diagnostics, CAT. NO: B549–150) and creatinine (Teco Diagnostics) levels were measured on a Medispec 99M autoanalyzer using a commercial kit[16].
# [4] = test system: liver and kidney tissues; assay: Antioxidant/oxidant balance: MDA and GSH levels in kidney and liver; assay type: in vivo, Mus musculus
# Description: To determine the effects of AFM1 and t-rsv on antioxidant/oxidant balance, malondialdehyde and glutathione levels were measured in the kidney and liver. For this purpose, liver and kidney organs were isolated from each mouse sacrificed under halothane anesthesia and washed with a sterile solution. Liver and kidney organs were homogenized with cold 0.15 M KCl solution. Homogenates were centrifuged at 5000g and 4 °C for 1 h and MDA and GSH analyzes were performed in the supernatant.
# [5] = test system: bone marrow cells; assay type: in vivo, Mus musculus
# Description: (§1) The genotoxic effects of AFM1 and the genotoxicity reducing effects of t-rsv were determined by MN and CAs analyses. MN test was performed in erythrocyte, buccal mucosa epithelium and leukocyte cells. CAs analyzes were investigated in bone marrow cells. The cytotoxic effects of AFM1 and the cytotoxicity reducing effects of t-rsv were determined by MI in bone marrow cells.
# CAs and MI analysis were determined in the bone marrow. For this aim, mice treated with 0.025% colchicine were sacrificed 2 h later under halothane anesthesia. Bone marrow obtained from the femurs of mice was aspirated, washed with the physiological solution and 0.075 M KCl was transferred. After fixation with Carnoy's solution, samples stained with Giemsa (5%) were examined under a microscope. […] In prepared slides, MI was determined as the percentage of dividing cells among 1000 nucleated cells for each group. Recovery effects (RE) of t-rsv against AFM1 induced genotoxicity were calculated by using Eq. (1). In determining RE, data belonging to Group VI, where t-rsv provided the highest healing effect, Group IV, in which AFM1 was treated alone, and the control group were used.1 RE%=D1-D2/D3-D2×100 D1: data of AFM1 + t-rsv treated group, D2: Data of AFM1 treated group, D3: data of control.
# [6] = test system: bone marrow cells; assay type: in vivo, Mus musculus; remark: listed apart in the source
# Description: as §1
# CAs and MI analysis were determined in the bone marrow. For this aim, mice treated with 0.025% colchicine were sacrificed 2 h later under halothane anesthesia. Bone marrow obtained from the femurs of mice was aspirated, washed with the physiological solution and 0.075 M KCl was transferred. After fixation with Carnoy's solution, samples stained with Giemsa (5%) were examined under a microscope. MI rates and CAs frequencies were determined in the prepared slides and 1.000 cells were analyzed for each group. In prepared slides, MI was determined as the percentage of dividing cells among 1000 nucleated cells for each group. Recovery effects (RE) of t-rsv against AFM1 induced genotoxicity were calculated by using Eq. (1). In determining RE, data belonging to Group VI, where t-rsv provided the highest healing effect, Group IV, in which AFM1 was treated alone, and the control group were used.1 RE%=D1-D2/D3-D2×100 D1: data of AFM1 + t-rsv treated group, D2: Data of AFM1 treated group, D3: data of control.
# [7] = test system: leukocyte cell nuclei; assay type: in vivo, swiss albino mice
# Description: The protocol of Tice et al.[19] was performed for alkaline single cell gel electrophoresis with slight modifications. Slides were dipped in 1% normal melting point agarose for coating and allowed to dry at 37 °C. 10 µL of peripheral blood were added to 120 µL of 0.5% low-melting-point agarose at 37 °C, layered onto a coated slide, covered with a coverslip and left at 4 °C for 5 min. to solidify the agarose. The coverslip was removed and the slides were immersed into a lysis solution (2.5 M NaCl, 100 mm Na2EDTA, 10 mM Tris–HCl buffer, pH 10, 1% Triton X-100) for approximately 1 h. After lysis, the slides were transferred to a horizontal gel electrophoresis tank with a fresh and cooled alkaline buffer. After a 20 min. DNA unwinding period, electrophoresed at 0.86 V/cm (20 V, 300 mA) for 20 min. […] To prevent DNA damage, all steps were performed in low light and analyzed by fluorescence microscopy. Comets were analyzed with Comet Assay software version 1.2.3b[20] with the parameters of tail DNA length. A total of 600 cells were analyzed for each group, 100 in each animal for DNA damage. The extent of DNA damage was scored from 0 to 4 depending upon the level of DNA damage. […] The total DNA damage per group, expressed as arbitrary units, was calculated using Eq. (2).2 Arbitraryunit=∑i=04Nixi (i: degree of damage (0, 1, 2, 3, 4), Ni: the number of cells in i degree).
# [8] = in vivo; cited from earlier work
# [9] = rabbit, in vivo; cited from earlier work
# [10] = test system: buccal mucosa epithelial cells; assay: MN test in buccal mucosa epithelial cells; assay type: in vivo, Mus musculus; conditions: 20 mg/kg t-rsv against 16 mg/kg AFM1
# Description: as §1
# For the MN test in the buccal mucosa epithelial cells, the mouths of the mice stunned with halothane anesthesia were rinsed with distilled water, and epithelial cells were taken from the left and right buccal mucosa and spread on the slide. Preparations fixed in methanol: acetic acid solution were stained with Fast Green and Feulgen then examined with a research microscope. For the MN test in erythrocytes, blood samples (5 µL) from the tail veins of mice stunned with halothane anesthesia were mixed with EDTA (3%) solution and spread on sterile slides. The preparations were fixed in ethanol (70%) for 2 min. were left to dry at 21 °C for 24 h. Slides were stained with Giemsa (5%) for 15 min. and analyzed under a microscope. For the leukocyte MN test, blood samples were obtained from each mouse and centrifuged at 5000 rpm for 10 min. 5 mL of 0.075 M KCl solution was transferred to the pellet. […]
# [11] = test system: albino mice; conditions: 10 mg/kg and 20 mg/kg doses
# [12] = Group II: 10 mg/kg b.w. t-rsv, 28 days
# [13] = Group III: 20 mg/kg b.w. t-rsv, 28 days
# [14] = Group II: 10 mg/kg b.w. t-rsv, 600 cells analyzed
# [15] = Group III: 20 mg/kg b.w. t-rsv, 600 cells analyzed
molecule,measurement,setting,value
"COc1cc2c(c3oc(=O)c4c(c13)CCC4=O)C1(O)C=COC1O2 (centres unmarked) [AFM1, Aflatoxin M1]",decrease in kidney weight compared to the control group,"[1]; mouse, in vivo",51.3%
same,decrease in liver weight compared to the control group,"[1]; mouse, in vivo",43.1%
same,"Organ weight, kidney","[1]; mouse, in vivo, iv, 16 mg/kg",0.74 ± 0.15^d
same,"Organ weight, liver","[1]; mouse, in vivo, iv, 16 mg/kg",1.50 ± 0.24^d
same,"Feed consumption, 7th day","[2]; mouse, in vivo, iv, 16 mg/kg",148.6
same,"Feed consumption, 14th day","[2]; mouse, in vivo, iv, 16 mg/kg",147.1
same,"Feed consumption, 21st day","[2]; mouse, in vivo, iv, 16 mg/kg",131.1
same,"Feed consumption, 28th day","[2]; mouse, in vivo, iv, 16 mg/kg",119.8
same,increase in ALT level compared to the control group,"[3]; mouse, in vivo, iv, 16 mg/kg",35.8%
same,increase in AST level compared to the control group,"[3]; mouse, in vivo, iv, 16 mg/kg",33.6%
same,increase in BUN level compared to the control group,"[3]; mouse, in vivo, iv, 16 mg/kg",43.6%
same,increase in creatinine level compared to the control group,"[3]; mouse, in vivo, iv, 16 mg/kg",58.4%
same,decrease of kidney GSH level compared to the control group,"[4]; mouse, in vivo",39.3%
same,decrease of liver GSH level compared to the control group,"[4]; mouse, in vivo",63.7%
same,increase of kidney MDA level compared to the control group,"[4]; mouse, in vivo",1.41 times
same,increase of liver MDA level compared to the control group,"[4]; mouse, in vivo",1.22 times
same,"CAs frequency, Acentric","[5]; mouse, in vivo, iv, 16 mg/kg",12.70 ± 0.94^a
same,"CAs frequency, Break","[5]; mouse, in vivo, iv, 16 mg/kg",60.20 ± 4.38^a
same,"CAs frequency, Dicentric","[5]; mouse, in vivo, iv, 16 mg/kg",8.20 ± 0.84^a
same,"CAs frequency, Fragment","[5]; mouse, in vivo, iv, 16 mg/kg",31.80 ± 3.12^a
same,"CAs frequency, Gap","[5]; mouse, in vivo, iv, 16 mg/kg",20.80 ± 2.65^a
same,"CAs frequency, Ring","[5]; mouse, in vivo, iv, 16 mg/kg",48.40 ± 4.15^a
same,decrease in MI rate compared to the control group,"[6]; mouse, in vivo",32.5%
same,average DNA damage score,"[7]; mouse, in vivo, iv, 16 mg/kg",255.67 ± 16.57
same,decrease in body weight compared to the control group,"mouse, in vivo",17.5%
same,FBW: Final body weight,"mouse, in vivo, iv, 16 mg/kg",41.38 ± 1.98 g
same,TWG: Total weight gain,"mouse, in vivo, iv, 16 mg/kg",3.5 g and 3.50^d g
Aflatoxin B1 [AFB1],reduction of weight gain compared to control,[8],33.94%
same,body weight loss compared to the control group,[9],approximately 539 g
"Oc1ccc(/C=C/c2cc(O)cc(O)c2)cc1 [t-rsv, trans-resveratrol]","Organ weight, kidney",[1]; [12],1.55 ± 0.30^a
same,"Organ weight, liver",[1]; [12],2.62 ± 0.34^a
same,"Organ weight, kidney",[1]; [13],1.53 ± 0.26^a
same,"Organ weight, liver",[1]; [13],2.65 ± 0.42^a
same,"Feed consumption, 7th day",[2]; Group II: 10 mg/kg b.w. t-rsv,151.9
same,"Feed consumption, 14th day",[2]; Group II: 10 mg/kg b.w. t-rsv,152.7
same,"Feed consumption, 21st day",[2]; Group II: 10 mg/kg b.w. t-rsv,155.7
same,"Feed consumption, 28th day",[2]; Group II: 10 mg/kg b.w. t-rsv,153.2
same,"Feed consumption, 7th day",[2]; Group III: 20 mg/kg b.w. t-rsv,157.6
same,"Feed consumption, 14th day",[2]; Group III: 20 mg/kg b.w. t-rsv,153.2
same,"Feed consumption, 21st day",[2]; Group III: 20 mg/kg b.w. t-rsv,155.6
same,"Feed consumption, 28th day",[2]; Group III: 20 mg/kg b.w. t-rsv,151.9
same,protection against abnormalities in serum parameters,[3]; 20 mg/kg t-rsv against AFM1,45.69–60.3%
same,decrease in MDA level,"[4]; t-rsv with AFM1, liver and kidney, dose not stated",16%
same,"RE, MN Buccosal",[10],48.9%
same,reduction in CA types,[5]; 10 mg/kg and 20 mg/kg t-rsv treatment with AFM1,22.6–63.9%
same,reduction of gap formation,[5]; 20 mg/kg t-rsv with AFM1,63.9%
same,"CAs frequency, Acentric",[5]; [14],0.00 ± 0.00^d
same,"CAs frequency, Break",[5]; [14],0.00 ± 0.00^d
same,"CAs frequency, Dicentric",[5]; [14],0.00 ± 0.00^d
same,"CAs frequency, Fragment",[5]; [14],0.00 ± 0.00^d
same,"CAs frequency, Gap",[5]; [14],0.00 ± 0.00^d
same,"CAs frequency, Acentric",[5]; [15],0.00 ± 0.00^d
same,"CAs frequency, Break",[5]; [15],0.00 ± 0.00^d
same,"CAs frequency, Dicentric",[5]; [15],0.00 ± 0.00^d
same,"CAs frequency, Fragment",[5]; [15],0.00 ± 0.00^d
same,"CAs frequency, Gap",[5]; [15],0.00 ± 0.00^d
same,"RE, MI Rate",[6]; 20 mg/kg t-rsv against 16 mg/kg AFM1,80.7%
same,MI levels,"[6]; control group, 10 mg/kg, 20 mg/kg t-rsv-treated groups",13.9–14.3%
same,DNA damage by t-rsv application alone,"[7]; Group II and III vs control, p > 0.05",did not induce DNA damage
same,FBW: Final body weight,[12],49.91 ± 2.10 g
same,TWG: Total weight gain,[12],11.96^a g
same,FBW: Final body weight,[13],50.66 ± 2.18 g
same,TWG: Total weight gain,[13],12.40^a g
same,toxic effect of resveratrol alone,[11],did not have a toxic effect
Aflatoxin G2 [AFG2],body weight loss compared to the control group,[9],approximately 539 g

# Source: article PMC9411558, “Toxicity mechanisms of aflatoxin M1 assisted with molecular docking and the toxicity-limiting role of trans-resveratrol” (Scientific Reports, 2022)
